Marks after values point to notes of the source that are not given here.
How the values were obtained:
[1] = system: PoAbs (anti-NIV polyclonal antibodies, mouse serum); format: binding
[2] = system: MoAb MNV87 (IgG1, κ); format: binding, mouse
[3] = cited from earlier work
[4] = system: MoAb MNV80 (IgG1, κ); format: binding, mouse
[5] = system: animals; conditions: cited from earlier work
[6] = system: monoclonal antibody (MoAb) prepared by Maragos et al.; conditions: cited from earlier work

Row | Compound | IC50 (fifty percent inhibitory concentration) with PoAb [1] | IC50 (fifty percent inhibitory concentration) with MoAb MNV87 [2] [ng/mL] | reactivity with MNV87 (in words) [2] | temporary tolerable daily intake level ([3]; LOAEL with a safety factor of 1000) [μg/kg body weight] | IC50 (fifty percent inhibitory concentration) with MoAb MNV80 [4] [ng/mL] | reactivity with MNV80 (in words) [4] | toxicity to animals compared with DON (in words) [5] | IC50 of PoAb after the 1st booster immunization [1] [ng/mL] | reaction range, concentrations between the IC20 and IC80 values, PoAbs [1] [ng/mL] | cross-reactivity compared to reactivity with DON [6] [%] | reaction range, concentrations between the IC20 and IC80 values, MNV87 [2] [ng/mL] | lowest observed adverse effect level [3] [mg/kg body weight per day] | reaction range, concentrations between the IC20 and IC80 values, MNV80 [4] [ng/mL] | fold lower IC50 than that with NIV, PoAbs [1] [fold] | fold lower IC50 than that with NIV, MNV87 [2] [fold] | fold lower IC50 than that with NIV, MNV80 [4] [fold]
1 | CC1=C[C@H]2O[C@@H]3[C@H](O)C[C@](C)([C@@]2(CO)[C@H](O)C1=O)[C@]31CO1 [DON, deoxynivalenol] | >1000 ng/mL | >1000 | not | 1.0 | >1000 | not | – | – | – | – | – | – | – | – | – | –
2 | CC(=O)O[C@@H]1C[C@]2(C)[C@@]3(CO)[C@H](O)C(=O)C(C)=C[C@H]3O[C@H]1[C@@]21CO1 [3-Ac-DON, 3-acetyldeoxynivalenol] | – | >1000 | – | – | >1000 | – | – | – | – | – | – | – | – | – | – | –
3 | 4-acetylnivalenol [4-Ac-NIV] | >1000 ng/mL | >1000 | not | – | >1000 | not | – | – | – | – | – | – | – | – | – | –
4 | CC1=C[C@H]2O[C@@H]3[C@H](O)[C@@H](O)[C@](C)([C@@]2(CO)[C@H](O)C1=O)[C@]31CO1 [NIV, nivalenol] | 70 * ng/mL | 37 | specifically reacted | – | 36 | specifically reacted | more toxic to animals than DON | 1400 | 12 to 950 | 57.4 | 7.1 to 170 | 0.7 | 6.9 to 180 | – | – | –
5 | CC(=O)OC[C@]12[C@H](O)C(=O)C(C)=C[C@H]1O[C@@H]1[C@H](O)[C@@H](O)[C@@]2(C)[C@]12CO2 [15-Ac-NIV, 15-acetylnivalenol] | 11 ng/mL | 18 | specifically reacted | – | 18 | specifically reacted | – | – | 1.7 to 85 | – | 2.4 to 95 | – | 2.8 to 100 | 6.4 | 2 | 2
6 | CC(=O)OC[C@]12[C@H](O)C(=O)C(C)=C[C@H]1O[C@@H]1[C@H](O)C[C@@]2(C)[C@]12CO2 [15-Ac-DON, 15-acetyldeoxynivalenol] | – | >1000 | – | – | >1000 | – | – | – | – | – | – | – | – | – | – | –

— PMC9693464 (Toxins, 2022)
